Data taken from ChEMBL document CHEMBL2203176, “Structure-based bioisosterism design, synthesis and biological evaluation of novel 1,2,4-triazin-6-ylthioacetamides as potent HIV-1 NNRTIs” (Bioorg Med Chem Lett, 2012).

Key:
[1] = Selectivity index, ratio of CC50 for human MT4 cells to EC50 for HIV2 ROD; format: toxicity, cell-based; settings: read-out: Ratio CC50/EC50
[2] = Selectivity index, ratio of CC50 for human MT4 cells to EC50 for HIV1 3B; format: toxicity, cell-based; settings: read-out: Ratio CC50/EC50
[3] = Cytotoxicity against human MT4 cells by MTT assay; format: cell-based
[4] = tested on: Human immunodeficiency virus 2; experiment: Antiviral activity against HIV2 ROD infected in human MT4 cells assessed as inhibition of virus-induced cytopathicity by MTT assay; format: functional, organism-based; settings: Human immunodeficiency virus 2, ISOLATE ROD
[5] = tested on: Human immunodeficiency virus 1; experiment: Antiviral activity against HIV1 3B infected in human MT4 cells assessed as inhibition of virus-induced cytopathicity by MTT assay; format: functional, organism-based; settings: Human immunodeficiency virus 1, 3B
[6] = Selectivity index, ratio of CC50 for human MT4 cells to EC50 for HIV1 RES056 harboring reverse transcriptase K103N/Y181C mutant; format: toxicity, cell-based; settings: read-out: Ratio CC50/EC50
[7] = tested on: Human immunodeficiency virus 1; experiment: Antiviral activity against HIV1 RES056 harboring reverse transcriptase K103N/Y181C mutant infected in human MT4 cells assessed as inhibition of virus-induced cytopathicity by MTT assay; format: functional, organism-based; settings: Human immunodeficiency virus 1, RES056, MT4

Row | SMILES | selectivity ratio [1] | selectivity ratio [2] | CC50 [3] [µM] | EC50 [4] [µM] | EC50 [5] [µM] | selectivity ratio [6] | EC50 [7] [µM]
1 | O=C(CSc1nncnc1-c1cccc2ccccc12)Nc1ccc(Cl)cc1Cl | < 1 | < 1 | 254 | > 254 | > 254 |  | 
2 | Cc1ccccc1NC(=O)CSc1nncnc1-c1cccc2ccccc12 | < 1 | 194 | 158 | > 158 | 0.828 | < 1 | > 158
3 | COC(=O)c1ccc(NC(=O)CSc2nncnc2-c2cccc3ccccc23)c(Br)c1 | < 1 | 2560 | 173 | > 173 | 0.069 | 7 | 25
4 | CCOC(=O)c1ccc(NC(=O)CSc2nncnc2-c2cccc3ccccc23)c(Br)c1 | < 1 | 524 | 105 | > 105 | 0.21 | < 1 | > 105
5 | CCOC(=O)c1ccc(NC(=O)CSc2nncnc2-c2cccc3ccccc23)c(Cl)c1 | < 1 | 729 | 150 | > 150 | 0.205 | < 1 | > 150
6 | O=C(CSc1nncnc1-c1cccc2ccccc12)Nc1ccc([N+](=O)[O-])cc1Cl | < 1 | < 1 | 150 | > 150 | > 150 |  | 
7 | O=C(CSc1nncnc1-c1cccc2ccccc12)N1CCc2ccccc2C1 | < 1 | 17 | 13 | > 13 | 0.751 | < 1 | > 13
8 | Cc1cnc(NC(=O)CSc2nncnc2-c2ccccc2Cl)c(Br)c1 | < 1 | < 1 | 144 | > 144 | > 31 |  | 
9 | Cc1ccc2sc(NC(=O)CSc3nncnc3-c3ccccc3Cl)nc2c1 | < 1 | < 1 | 137 | > 32 | > 32 |  | 
10 | O=C(CSc1nncnc1-c1ccccc1Cl)c1ccc(Br)cc1Br | < 1 | < 1 | 28 | > 28 | > 28 |  | 
11 | O=C(CSc1nncnc1-c1ccccc1Cl)c1ccc(Cl)c(Cl)c1 | < 1 | 5 | 33 | > 33 | 6.2 |  | > 33
12 | O=C(CSc1nncnc1-c1ccccc1Cl)N1CCCc2ccccc21 | < 1 | < 1 | 35 | > 35 | > 35 |  | 
13 | O=C(CSc1nncnc1-c1cccc2ccccc12)Nc1cccnc1Cl | < 1 | 751 | 44 | > 44 | 0.059 | 6 | 7
14 | O=C(CSc1nncnc1-c1ccccc1Cl)Nc1ccccc1Cl | < 1 |  |  | > 90 |  | ≤ 2 | ≥ 55
15 | CC(C)Nc1cccnc1N1CCN(C(=O)c2cc3cc(NS(C)(=O)=O)ccc3[nH]2)CC1 [DELAVIRDINE] |  |  | > 36 |  | 0.032 | < 1 | > 36
16 | O=C1Nc2ccc(Cl)cc2[C@@](C#CC2CC2)(C(F)(F)F)O1 [EFAVIRENZ] |  |  | > 6.3 |  |  |  | 
17 | Cc1ccnc2c1NC(=O)c1cccnc1N2C1CC1 [NEVIRAPINE] |  |  | > 15 |  |  |  | 11
18 | Nc1ccn([C@H]2CC[C@@H](CO)O2)c(=O)n1 [ZALCITABINE] | > 74 | 68 | > 95 | 1.3 | 1 |  | 
19 | Cc1cn([C@H]2C[C@H](N=[N+]=[N-])[C@@H](CO)O2)c(=O)[nH]c1=O [ZIDOVUDINE] | 56900 | 8300 |  | 0.004 |  | 29600 | 0.009
